{"source": "patent US6156789A", "about": "“Method for treating abnormal cell proliferation in the brain” (Rhone-Poulenc Rorer S.A., priority 1998, dated 2000)", "assay": "Highest non toxic dose in the mouse", "details": "in vivo, iv, read-out: highest non toxic dose (HNTD)", "data": [{"smiles": "CC(=O)O[C@H]1C(=O)[C@]23C[C@H]2C[C@H]2OC[C@@]2(OC(C)=O)[C@H]3[C@H](OC(=O)c2ccccc2)[C@]2(O)C[C@H](OC(=O)[C@H](O)[C@@H](NC(=O)OC(C)(C)C)c3ccccc3)C(C)=C1C2(C)C", "note": "[Compound A, 4α,10β-diacetoxy-2α-benzoyloxy-5β,20-epoxy-1β-hydroxy-7β,8β-methylene-9-oxo-19-nor-11-taxen-13α-yl (2R,3S)-3-tert-butoxycarbonylamino-2-hydroxy-3-phenylpropionate]", "values": [{"measurement": "MTD", "result": 40, "unit": "mg/kg"}]}]}
